According to patent US9439878B2, “Use of lumefantrine and related compounds in the treatment of cancer” (priority 2010, dated 2016):

Assays:
[1] = tested on: Ba/F3 cells expressing wild-type BCR-ABL (p210); assay: MTT cell viability assay, Ba/F3 cells expressing wild-type (p210) Bcr-Abl; format: cell-based, Murine; settings: for potency relative to chloroquine (cell viability): chloroquine 25 μM control
Description: (§1) A study conducted through the independent Cancer Therapy & Research Center, Institute for Drug Development at the University of Texas Health Science Center at San Antonio, Tex., evaluated lumefantrine as an autophagy inhibitor (i.e., “Lumefantrine Study”). […] 1; 110(1):313-22. Epub 2007 Mar. 15. PMID: 17363733”. Murine Ba/F3 cells that stably express wild-type BCR-ABL (p210) or the T315I mutated version of BCR-ABL, which confers resistance to imatinib and nilotinib were utilized for this study. Cells were propagated at 37° C. in a humidified atmosphere containing 5% carbon dioxide. Cell viability was determined using the MTT assay. This colorimetric procedure measures conversion of the MTT reagent (a tetrazoleum salt) to formazan by mitochondria. Formazan production was quantified by spectrophotometric measurement at 570 nm and was proportional to viable cell number. Cells were cultured and treated with different concentrations of the agent(s) for 48 hours. Following treatment, 50 μl of MTT was added to each well and allowed to incubate for 1-3 hours at 37° C. Each well was aspirated and 200 μl of DMSO was added to each well to dissolve the formazan. […] Lumefantrine was tested as potential autophagy inhibitor at final concentrations between one to forty micromolar. […] The ER stressor drugs tested and their final concentrations were GleevecTM (imatinib, Novartis, final 350 nM), […] (nilotinib, Novartis, final 35 nM) or ZolinzaTM (suberoylanilide hydroxamic acid, Merck, final 1 μM).

[2] = tested on: Ba/F3 cells expressing T315I mutated BCR-ABL; assay: MTT cell viability assay, Ba/F3 cells expressing mutant Bcr-Abl (T315I); format: cell-based, Murine; settings: for potency relative to chloroquine (cell viability): chloroquine 25 μM control
Description: as §1

With `CCCCN(CCCC)CC(O)c1cc(Cl)cc2c1-c1ccc(Cl)cc1/C2=C\c1ccc(Cl)cc1` (racemic) [lumefantrine, 2-(dibutylamino)-1-[(9E)-2,7-dichloro-9-(4-chlorobenzylidene)-9H-fluoren-4-yl]ethanol] as the molecule, how does the “potency relative to chloroquine (cell viability)” value (“potency relative to chloroquine” below) ([1]; SAHA experiment, Ba/F3 p210) read?
The value was “equipotent with chloroquine”.

And the “potency relative to chloroquine” value ([1]; imatinib experiment, Ba/F3 p210)?
The value was “equipotent with chloroquine”.

And the “cell viability (MTT, OD 570 nm)” value ([1]; lumefantrine 1-40 micromolar, with and without SAHA 1 μM, 48 hours, Ba/F3 p210 (FIG. 2))?
The value was “dose-dependent reductions in the cell viability”.

What about the “potency relative to chloroquine” value ([1]; nilotinib experiment, Ba/F3 p210) of the same molecule?
The value was “equipotent with chloroquine”.

What about the “enhancement of suberoylanilide hydroxamic acid (SAHA) effect on proliferation/viability” value ([1]; with SAHA 1 μM, 48 hours, Ba/F3 p210) of the same molecule?
Its value is “enhanced the suberoylanilide hydroxamic acid drug response”.

And the “augmentation of imatinib effects on cell viability” value ([1]; with imatinib 350 nM, 48 hours, Ba/F3 p210 (FIG. 4))?
The value was “augments the imatinib effects”.

And the “augmentation of nolotinb effects on cell viability” value ([1]; with nilotinib 35 nM, 48 hours, Ba/F3 p210 (FIG. 6))?
The value was “augments the nolotinb effects”.

What about the “potency relative to chloroquine” value ([2]; SAHA experiment, Ba/F3 T315I) of the same molecule?
The value was “equipotent with chloroquine”.

What about the “potency relative to chloroquine” value ([2]; imatinib experiment, Ba/F3 T315I) of the same molecule?
Its value is “equipotent with chloroquine”.

And the “cell viability (MTT, OD 570 nm)” value ([2]; lumefantrine 1-40 micromolar, with and without SAHA 1 μM, 48 hours, Ba/F3 T315I (FIG. 3))?
Its value is “dose-dependent reductions in the cell viability”.

And the “potency relative to chloroquine” value ([2]; nilotinib experiment, Ba/F3 T315I)?
Its value is “equipotent with chloroquine”.

And the “enhancement of suberoylanilide hydroxamic acid (SAHA) effect on proliferation/viability” value ([2]; with SAHA 1 μM, 48 hours, Ba/F3 T315I)?
Its value is “enhanced the suberoylanilide hydroxamic acid drug response”.

What about the “augmentation of imatinib effects on cell viability” value ([2]; with imatinib 350 nM, 48 hours, Ba/F3 T315I (FIG. 5)) of the same molecule?
Its value is “the only effects on viability are those generated by lumefantrine alone”.

What about the “augmentation of nolotinb effects on cell viability” value ([2]; with nilotinib 35 nM, 48 hours, Ba/F3 T315I (FIG. 7)) of the same molecule?
Its value is “the only effects on viability are those generated by lumefantrine alone”.
